Assays:
STEAP2 = molecular target: T1, STEAP2 (Homo sapiens, UniProt Q8NFT2); assay: cryo-EM structure, […] Å; type: binding
T1 construct: full-length (490 residues), C-terminal His6-tag cleaved by TEV protease; High Five or Sf9 insect cells; LMNG or GDN; homotrimer
T1 sequence (Q8NFT2 1-490): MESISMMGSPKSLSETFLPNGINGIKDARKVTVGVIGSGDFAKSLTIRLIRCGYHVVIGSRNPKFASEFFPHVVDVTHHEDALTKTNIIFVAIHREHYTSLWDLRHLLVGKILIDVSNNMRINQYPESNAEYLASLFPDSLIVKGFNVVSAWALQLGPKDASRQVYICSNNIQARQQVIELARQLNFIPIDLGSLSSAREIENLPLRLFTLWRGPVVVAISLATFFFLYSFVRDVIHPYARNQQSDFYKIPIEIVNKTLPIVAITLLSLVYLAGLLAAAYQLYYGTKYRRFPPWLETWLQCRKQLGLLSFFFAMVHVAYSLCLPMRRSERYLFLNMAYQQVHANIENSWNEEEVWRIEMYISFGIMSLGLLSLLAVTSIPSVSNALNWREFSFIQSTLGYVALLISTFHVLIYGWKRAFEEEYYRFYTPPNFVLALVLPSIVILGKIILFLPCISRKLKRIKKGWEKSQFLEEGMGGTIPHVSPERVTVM

[1] = molecular target: T2, cytochrome b5 reductase (b5R) (Mus musculus, UniProt Q9DCN2); assay: rapid-scan stopped-flow FAD reduction; type: biochemical; settings: anaerobic, 1.5 μM b5R with 1.5 μM STEAP1 and 10 μM NADH
T2 construct: gene Cyb5r3
T2 sequence (Q9DCN2 24-301): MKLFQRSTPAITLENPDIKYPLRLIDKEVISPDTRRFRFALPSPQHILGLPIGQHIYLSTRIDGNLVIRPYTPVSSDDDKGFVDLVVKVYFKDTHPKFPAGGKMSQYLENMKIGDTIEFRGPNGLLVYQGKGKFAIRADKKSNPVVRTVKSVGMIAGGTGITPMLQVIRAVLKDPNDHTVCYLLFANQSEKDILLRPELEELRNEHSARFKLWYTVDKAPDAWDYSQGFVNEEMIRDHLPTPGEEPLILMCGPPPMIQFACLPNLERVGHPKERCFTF

Compound: NC(=O)c1ccc[n+]([C@@H]2O[C@H](COP(=O)(O)OP(=O)(O)OC[C@H]3O[C@@H](n4cnc5c(N)ncnc54)[C@H](OP(=O)(O)O)[C@@H]3O)[C@@H](O)[C@H]2O)c1 [NADP^+]
- cryo-EM structure, 3.2 Å (STEAP2; complex with FAD and heme, OxRD site): Heme, FAD, and NADP^+ are unambiguously resolved in the density map

Compound: NC(=O)C1=CN([C@@H]2O[C@H](COP(=O)(O)OP(=O)(O)OC[C@H]3O[C@@H](n4cnc5c(N)ncnc54)[C@H](O)[C@@H]3O)[C@@H](O)[C@H]2O)C=CC1 [NADH]
- rapid-scan stopped-flow FAD reduction [1]: intermediate B is due to fast FAD reduction in b5R by NADH

Compound: Cc1cc2nc3c(=O)[nH]c(=O)nc-3n(C[C@H](O)[C@H](O)[C@H](O)COP(=O)(O)OP(=O)(O)OC[C@H]3O[C@@H](n4cnc5c(N)ncnc54)[C@H](O)[C@@H]3O)c2cc1C [FAD]
- cryo-EM structure, 3.2 Å (STEAP2; complex with NADP+ and heme, extended conformation, isoalloxazine ring in TMD, adenine stacks on Trp152 of OxRD): Heme, FAD, and NADP^+ are unambiguously resolved in the density map

From publication PMC10659578, “Mechanism of stepwise electron transfer in six-transmembrane epithelial antigen of the prostate (STEAP) 1 and 2” (eLife, 2023)
